Laboratory results published in patent publication US11512097B2, “Heterocyclic compounds as Delta-5 desaturase inhibitors and methods of use” (Amgen Inc., priority 2019, dated 2022).

Biological target: T1, Delta-5-Desaturase (D5D), membrane preparations of D5D-overexpressing HEK293 6E cells (Homo sapiens, UniProt O60427)
T1 construct: expressed in transfected cells; host or cells: HEK293 6E cells (membrane preparation)
Assay: In vitro measurement of Delta-5-Desaturase inhibitory activity using DGLA-CoA and Arachidonyl-CoA mass spectrometric assays
Type: biochemical
Conditions: D5D membrane 10 μg/mL, one-hour incubation, average of at least two independent runs
Outline: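 Substrate mix (0.01 mM DGLA with NADH, ATP, coenzyme A) was incubated 1 h at room temperature with HEK293 6E D5D membranes at 10 μg/mL final, pH 7.5. Negative-mode SPE-MS/MS monitored DGLA-CoA (m/z 526.6) and arachidonyl-CoA (m/z 525.6). Inhibition normalised to DMSO and no-enzyme wells gave IC50s, mean of ≥2 runs.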

T1 sequence (O60427 whole entry, species assumed): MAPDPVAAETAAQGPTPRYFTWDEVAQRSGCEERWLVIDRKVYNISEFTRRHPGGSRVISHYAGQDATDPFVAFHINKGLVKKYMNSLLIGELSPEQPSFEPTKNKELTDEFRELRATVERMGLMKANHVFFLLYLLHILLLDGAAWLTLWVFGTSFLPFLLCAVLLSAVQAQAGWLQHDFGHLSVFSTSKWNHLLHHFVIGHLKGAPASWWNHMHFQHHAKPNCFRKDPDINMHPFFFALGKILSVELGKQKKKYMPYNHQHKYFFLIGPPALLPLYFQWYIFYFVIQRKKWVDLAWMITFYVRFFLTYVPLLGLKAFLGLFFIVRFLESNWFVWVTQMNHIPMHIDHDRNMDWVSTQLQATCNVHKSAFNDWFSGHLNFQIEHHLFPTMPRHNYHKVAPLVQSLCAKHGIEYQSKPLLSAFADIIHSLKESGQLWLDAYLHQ

Cc1nn2c(=O)c(-c3cnn(CC(F)(F)C(F)(F)F)c3)c(C(F)(F)F)nc2s1 [Example 2, 2-methyl-6-[1-(2,2,3,3,3-pentafluoropropyl)-1H-pyrazol-4-yl]-7-(trifluoromethyl)-5H-[1,3,4]thiadiazolo[3,2-a]pyrimidin-5-one]
IC50: 19.6 nM
